Data taken from ChEMBL document CHEMBL5370627, “Novel Indazole Compounds as TEAD Inhibitors for Treating Cancer” (ACS Med Chem Lett, 2023).

Legend:
[1] = target: Transcriptional enhancer factor TEF-1 (Homo sapiens, UniProt P28347); assay: Inhibition of His-tagged TEAD1 (unknown origin) preincubated for 0.5 to 4 hrs followed by biotinylated lipid pocket probe addition and measured after 60 min by TR-FRET assay
[2] = target: Transcriptional enhancer factor TEF-3 (Homo sapiens, UniProt Q15561); assay: Inhibition of His-tagged TEAD4 (unknown origin) preincubated for 0.5 to 4 hrs followed by biotinylated lipid pocket probe addition and measured after 60 min by TR-FRET assay
Transcriptional enhancer factor TEF-3, sequence (Q15561 whole entry): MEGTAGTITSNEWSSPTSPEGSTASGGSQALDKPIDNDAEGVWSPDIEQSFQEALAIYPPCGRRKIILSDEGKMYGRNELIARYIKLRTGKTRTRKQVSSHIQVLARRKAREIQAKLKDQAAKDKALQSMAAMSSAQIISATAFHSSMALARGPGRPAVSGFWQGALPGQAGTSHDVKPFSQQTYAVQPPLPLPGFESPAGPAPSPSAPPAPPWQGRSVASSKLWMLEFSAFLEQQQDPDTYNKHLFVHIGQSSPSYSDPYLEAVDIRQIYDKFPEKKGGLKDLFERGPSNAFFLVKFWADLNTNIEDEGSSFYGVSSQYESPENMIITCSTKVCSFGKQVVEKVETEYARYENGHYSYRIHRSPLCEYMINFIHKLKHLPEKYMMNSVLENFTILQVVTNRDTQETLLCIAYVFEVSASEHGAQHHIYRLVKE

[3] = target: Transcriptional enhancer factor TEF-4 (Homo sapiens, UniProt Q15562); assay: Inhibition of His-tagged TEAD2 (unknown origin) preincubated for 0.5 to 4 hrs followed by biotinylated lipid pocket probe addition and measured after 60 min by TR-FRET assay
Transcriptional enhancer factor TEF-4, sequence (Q15562 whole entry): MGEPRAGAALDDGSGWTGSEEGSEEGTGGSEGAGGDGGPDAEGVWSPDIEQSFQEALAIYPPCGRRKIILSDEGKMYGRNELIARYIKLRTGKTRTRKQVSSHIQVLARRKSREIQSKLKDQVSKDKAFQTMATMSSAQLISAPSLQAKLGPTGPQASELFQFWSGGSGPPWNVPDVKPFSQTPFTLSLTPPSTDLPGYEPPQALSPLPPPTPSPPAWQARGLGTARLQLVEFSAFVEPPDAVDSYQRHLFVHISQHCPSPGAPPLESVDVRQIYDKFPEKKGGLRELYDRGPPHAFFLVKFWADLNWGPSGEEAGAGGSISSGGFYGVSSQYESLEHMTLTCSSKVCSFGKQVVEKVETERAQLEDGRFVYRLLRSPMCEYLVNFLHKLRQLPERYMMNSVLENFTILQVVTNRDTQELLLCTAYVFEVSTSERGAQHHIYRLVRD

[4] = target: Transcriptional enhancer factor TEF-5 (Homo sapiens, UniProt Q99594); assay: Inhibition of His-tagged TEAD3 (unknown origin) preincubated for 0.5 to 4 hrs followed by biotinylated lipid pocket probe addition and measured after 60 min by TR-FRET assay
Transcriptional enhancer factor TEF-5, sequence (Q99594 whole entry): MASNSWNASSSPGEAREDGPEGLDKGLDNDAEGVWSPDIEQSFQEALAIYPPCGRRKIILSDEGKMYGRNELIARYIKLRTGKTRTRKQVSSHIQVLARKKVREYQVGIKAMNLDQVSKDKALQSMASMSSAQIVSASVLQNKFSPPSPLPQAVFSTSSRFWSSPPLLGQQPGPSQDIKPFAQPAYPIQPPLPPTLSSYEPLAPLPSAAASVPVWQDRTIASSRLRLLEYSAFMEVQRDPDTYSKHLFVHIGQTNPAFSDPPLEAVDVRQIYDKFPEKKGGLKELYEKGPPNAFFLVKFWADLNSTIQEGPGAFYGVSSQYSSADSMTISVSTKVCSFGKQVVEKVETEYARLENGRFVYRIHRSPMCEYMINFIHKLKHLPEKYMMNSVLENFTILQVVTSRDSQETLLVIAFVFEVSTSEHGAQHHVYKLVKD

Transcriptional enhancer factor TEF-1, sequence (P28347 whole entry): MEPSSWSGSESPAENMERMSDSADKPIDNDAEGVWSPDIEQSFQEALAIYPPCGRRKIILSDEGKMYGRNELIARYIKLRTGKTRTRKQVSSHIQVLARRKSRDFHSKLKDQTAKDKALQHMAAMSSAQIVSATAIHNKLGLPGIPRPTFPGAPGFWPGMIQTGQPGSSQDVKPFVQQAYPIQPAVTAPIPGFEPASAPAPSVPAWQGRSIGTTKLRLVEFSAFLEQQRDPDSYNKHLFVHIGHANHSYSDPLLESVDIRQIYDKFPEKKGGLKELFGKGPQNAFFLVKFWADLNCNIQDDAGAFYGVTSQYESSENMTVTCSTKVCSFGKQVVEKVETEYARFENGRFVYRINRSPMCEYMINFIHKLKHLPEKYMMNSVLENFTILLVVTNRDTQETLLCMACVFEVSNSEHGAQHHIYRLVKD

Row | IC50 [1] [nM] | IC50 [2] [nM] | IC50 [3] [nM] | IC50 [4] [nM] | Structure (SMILES)
1 | 8 | 3 | – | – | O=C(/C=C/CO)N1CC(c2nn(-c3ccc(OC(F)(F)F)cc3)c3nccc(Cl)c23)C1
2 | 4 | 9 | 2 | 5 | C#Cc1ccnc2c1c(C1CN(C(=O)C=C)C1)nn2-c1ccc(OC(F)(F)F)cc1
